Experimental data reported in US10722446B2, “Aqueous oral care compositions” (Colgate-Palmolive Company, priority 2011, dated 2020).

Test: Rheological properties (stress controlled AR2000ex rheometer, flow curve and strain sweep)
Format: physicochemical
Source text: The three commercial mouthwashes are a simple fluoride-rinse type mouthwash (comparative formulation 1), a polymer based high fluoride mouthwash (comparative formulation 2), and a mouthwash having a conventional polymer system different from that described in this case (mouthwash 3). The rheological properties of the formulations are quantified using a stress controlled AR2000ex rheometer (TA Instruments) and a cuette type geometry. A flow curve is generated and fit to a power law model to quantify the flow rate index, n. A strain sweep is conducted to quantify the elastic modulus, G′ and the loss modulus, G″.

[1] = flow curve fit to a power law model
[2] = strain sweep, cuette type geometry

O [Newtonian Fluid Example, Water]
k [1]: 1.1 cps
n (flow rate index) [1]: 1.0
G′/G″ (ratio of elastic to viscous components): 0.09
G′ (elastic modulus) [2]: 0.02 dyn/cm2
G″ (loss modulus) [2]: 0.23 dyn/cm2
